This is an account of results in patent US20210252173A1, “STABILIZED POLYUNSATURATED COMPOUNDS AND USES THEREOF” (RETROTOPE, INC., priority 2018, published 2021).

Each structure is given as a SMILES string. Like-named read-outs stand apart in the source and are kept apart here. Some results are limits rather than exact numbers.

For one series, the system named is murine model of FRDA. The conditions noted are these: Abeti et al. 2016; cited from earlier work.
Another series deals with murine FRDA cell model. The note with it: cited from earlier work.
The test system of series [1] is human fibroblast FRDA model. The note with it: cited from earlier work.
Another series relates to H9C2 myoblasts. The note with it: other oxidative stress paradigms; cited from earlier work.
For a further series, the system named is yeast model of FRDA. The conditions noted are these: cited from earlier work.
For series [2] the following is noted: female, human, in vivo. The source says: (§1) A study in the fatal neurodegenerative disease, Infantile Neuroaxonal Dystrophy (INAD) was initiated in March 2017. At study onset, the subject with a genetic mutation in both copies of the PLA2G6 gene, was mostly unresponsive to stimuli and unable to perform virtually any activity. All normal development milestones previously acquired had been lost. Prognosis was that a feeding tube would be required in the near term progression of the disease. The patient received dosing of a D-PUFA (11,11-D2-linoleic acid), 1.8 g twice a day, for a six month trial under an Expanded Access (Compassionate Use) protocol. As they were unable to swallow a pill, soft gels containing the D-PUFA were placed in warm liquid (water or milk), pierced with a fork, and the active oil pressed into the liquid, which was then soaked into food or a cookie, and administered.
(§2) One month and three month plasma level of deuterated polyunsaturated fatty acid was at steady state at approximately 44% total (dietary plus modified) linoleic acid, indicating excellent uptake and absorption of a therapeutic level of drug (>˜10-15%). Deuterated arachidonic acid was observed as present in the plasma at 0.6% and 3.0% of total arachidonic acid at month one and three months; respectively.

The nature of a further series: in vivo. The arrangement: species or system mice and rats. The conditions noted are these: rat. The method, then:
Single- and repeat-dose studies are conducted in mice and rats using both oral gavage and dietary administration of substituted compounds as described herein (e.g., D-PUFA and ester thereof) for up to 26 weeks. […] The NOAELs established in the 8- and 26-week studies correspond to an average consumption of the substituted compounds studied in the amount of ˜362 and ˜452 mg/kg, respectively. The high dose diets in these studies contained no natural LA. […] This is consistent with the substituted compounds as described herein (e.g., D-PUFA and ester thereof) (di-deutero linoleic acid) being, for dietary purposes, equivalent to and biologically interchangeable with normal dietary LA as a sole source of LA by the rats in this study. […] The body weights, organ weights, percent of each organ composed of PUFAs, distribution of PUFA species in each tissue, and the PUFA composition of red blood cells are not changed versus controls.

In series [3] the test system is patient with Infantile Neuroaxonal Dystrophy (INAD), mutation in both copies of the PLA2G6 gene. Format: in vivo, human.
Excerpt: as §1
FIG. 1 summarizes the baseline and one year treatment status of the patient (degree of impairment: (0) for severely impaired, (+1) for moderately impaired, (+2) for mildly impaired or no impairment).
After 2 months on drug, […] regained sufficient bulbar function to terminate syringe feeding of liquids and returned to drinking from a child's sippy cup.
as §2
INAD is a strictly progressive disease, only worsening with time. Stabilization of regressions and recovery of lost milestones indicated effectiveness of the test treatment in a single, severely affected INAD patient.

The conditions of series [4]: human, in vivo. How it is done: Design/Methods: 11,11-D2-linoleic acid ethyl ester was administered to the patient at 2.7 g (BID) and periodic repeat assessments including baseline measurement of PK, activities of daily living (ADL), 25 foot walk time (25FWT), and 6 minute walk distance (6MWD) were made. In particular, ADLs were measured individually on a scale of 0-5 across a 12 element panel representing speech, strength, coordination, etc.

Series [5] concerns patient with late onset Tay-Sachs disease (LOTS). Nature of the series: Case study in a single patient with late onset Tay-Sachs disease: ADL, 25FWT, 6MWD, tolerability. The format is in vivo, human. The note with it: 2.7 g BID; for Composite ADL Score: baseline 0; for 25FWT: baseline 12.7. The source says:
In this example, a case study of using 11,11-D2-linoleic acid ethyl ester to treat a single patient with late onset Tay-Sachs disease (LOTS) and the study results was reported.

As to `[2H]C([2H])(/C=C\CC)/C=C\C([2H])([2H])/C=C\CCCCCCCC(=O)O` [D4-ALA, 11,11,14,14-Tetradeutero-cis,cis,cis-9,12,15-Octadecatrienoic acid], the lipid peroxidation entry in the series on murine model of FRDA is recorded as “prevent lipid peroxidation”; with yeast model of FRDA, “decreased lipid peroxidation”. The cell viability result with murine FRDA cell model is recorded as “protect cells from loss of viability”; in series [1], “rescue cells from loss of viability”. For the same molecule, the “protection against oxidative stress” value with H9C2 myoblasts is listed as “protective against oxidative stress”.

For orientation: NOAEL means the highest dose or exposure tested at which no adverse effect was seen. `[2H]C([2H])(/C=C\CCCCC)/C=C\CCCCCCCC(=O)O` [11,11-D2-linoleic acid, 11,11-Dideutero-cis,cis-9,12-Octadecadienoic acid]: in [2] (1 month), the “deuterated arachidonic acid in plasma, of total arachidonic acid” value is 0.6%. Besides, in series [2] (3 months), the “deuterated arachidonic acid in plasma, of total arachidonic acid” value turned out to be 3.0%. Moreover, the cell viability entry in the series with murine FRDA cell model was “protect cells from loss of viability”. Also, the cell viability entry in [1] is “rescue cells from loss of viability”. In “in vivo”, the NOAEL at 8 weeks is approximately 362 mg/kg and the no observed adverse effect level (NOAEL) at 26 weeks was approximately 452 mg/kg. Also, the “progression of disease, clinical examination” value in series [3] (3 months, since start of trial, n=1) was “no progression of disease”. Besides, the “qualitative measures in videotaped sessions (eye tracking, responsiveness, head control, lifting, reaching and grasping)” value in series [3] (after 6 months) is reported as “improved in qualitative measures”. In [3] (human, in vivo), the “drug related adverse events” value is given as “no drug related adverse events of any sort reported”; the safety and tolerability result was “safe and well-tolerated”. Besides, in series [3] (parents' report at 4 months), the ability to grasp entry is “regained ability to grasp spoon and hold”; the constipation result was “constipation resolved”; the eating entry is “can eat (chew and swallow) food such as banana”; the “responsiveness to verbal requests” value was “newly responsive to verbal requests during therapy”. In addition, in series [3] (parents' report at 4 months), the salivation down amounted to 99%. Further, in series [3] (parents' report at 4 months, grasping and lifting rattle), the muscle strength result is listed as “better muscle strength”. Besides, the ability to swallow entry in series [3] (parents' report at 4 months, vs. syringe feeding) was “regained ability to swallow using sipper cup”. Also, in series [3] (starting within a month of dosing until one year), the overall patient status result is “the patient has improved”. The “time to significant plasma levels and red blood cell (RBC) membrane incorporation” value in series [4] is listed as not above 1 month.

Turning to `[2H]C([2H])(/C=C\CCCCC)/C=C\CCCCCCCC(=O)OCC` [11,11-D2-linoleic acid ethyl ester], in [5], the disease progression result was “Early efficacy signs of inhibition of disease progression and some regression were seen”; the tolerability / toxicities result is on record as “well tolerated with no toxicities reported”. Further, in series [5] (30 d), the “# of ADLs improved” value is 6 and the 25FWT stood at 12.1 s. For the same molecule, the “Composite ADL Score” value in series [5] (30 d, 12 element panel, scale 0-5) is “+6”. Also, in series [5] (120 d), the “# of ADLs improved” value turned out to be 8, the “Composite ADL Score” value was “+9” and the 25FWT came out at 11.2 s. Moreover, in series [4], the “D-LA(%) D-LA + H-LA Plasma” value is recorded as 36% and the “D-LA(%) D-LA + H-LA RBC” value worked out at 28%.
